Where no end group is shown, it is not given here.
Experiments:
FPRL1 = target: T1, FPRL1 (Homo sapiens, UniProt P25090); assay: [35S]GTPγS binding assay, membranes of transiently transfected CHO cells; assay type: biochemical; parameters: Full-Length Cloning of Human GPCRs; expressed in transfected cells; host or cells: CHO-K1 cells, transient, pCMV; plasma membranes; conditions: FIG. 3 panel B, read-out: EC50 at FPRL1, promoted [35S]GTPγS binding
T1 sequence (P25090 1-351): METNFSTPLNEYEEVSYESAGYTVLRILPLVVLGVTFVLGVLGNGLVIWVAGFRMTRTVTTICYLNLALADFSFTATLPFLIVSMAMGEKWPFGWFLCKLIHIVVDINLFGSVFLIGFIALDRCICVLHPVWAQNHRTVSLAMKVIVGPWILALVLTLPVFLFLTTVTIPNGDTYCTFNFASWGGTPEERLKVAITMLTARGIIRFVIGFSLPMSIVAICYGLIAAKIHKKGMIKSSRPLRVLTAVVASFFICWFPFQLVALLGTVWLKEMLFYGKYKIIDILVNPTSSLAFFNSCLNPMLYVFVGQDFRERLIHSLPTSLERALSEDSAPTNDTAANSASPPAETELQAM

[1] = test system: human cerebrovascular smooth muscle cells; conditions: cited from earlier work
human FPRL2 = target: T2, human FPRL2 (Homo sapiens, UniProt P25089); assay: Melanophore assay (pigment aggregation, Gi coupling); assay type: cell-based; parameters: expressed in transfected cells; conditions: FPRL2 double tagged (HA/V5), transient; FIG. 4; read-out: EC50 of promoted pigment aggregation in melanophore (Gi coupling)
T2 sequence (P25089 with tags, fused parts or gaps): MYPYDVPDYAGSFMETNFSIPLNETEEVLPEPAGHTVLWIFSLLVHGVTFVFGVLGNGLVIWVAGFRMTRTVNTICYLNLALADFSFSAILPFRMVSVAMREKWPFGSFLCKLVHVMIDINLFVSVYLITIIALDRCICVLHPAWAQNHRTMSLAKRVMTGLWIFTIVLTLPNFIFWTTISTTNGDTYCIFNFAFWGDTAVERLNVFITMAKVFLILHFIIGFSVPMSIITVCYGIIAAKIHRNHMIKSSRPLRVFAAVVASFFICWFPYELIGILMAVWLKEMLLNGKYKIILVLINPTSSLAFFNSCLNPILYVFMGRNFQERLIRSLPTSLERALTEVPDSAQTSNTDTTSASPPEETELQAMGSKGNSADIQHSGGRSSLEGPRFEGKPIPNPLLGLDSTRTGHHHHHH
Description: Melanophores are skin cells found in lower vertebrates. They contain pigmented organelles termed melanosomes. Melanophores are able to redistribute these melanosomes along a microtubule network upon G-protein coupled receptor (GPCR) activation. The result of this pigment movement is an apparent lightening or darkening of the cells. In melanophores, the decreased levels of intracellular cAMP that result from activation of a Gi-coupled receptor cause melanosomes to migrate to the center of the cell, resulting in a dramatic lightening in color. If cAMP levels are then raised, following activation of a Gs-coupled receptor, the melanosomes are re-dispersed and the cells appear dark again. The increased levels of diacylglycerol that result from activation of Gq-coupled receptors can also induce this re-dispersion. In addition, the technology is also suited to the study of certain receptor tyrosine kinases. […] The response can be easily detected using a conventional absorbance microplate reader or a modest video imaging system. […]
Melanophores can be utilized to identify compounds, including natural ligands, against GPCRs. […] The test cells are then contacted with chemical compounds, and it is determined whether the pigment disposition in the cells changed from the initial state of pigment disposition. […]

EC50 (FPRL1) [nM]	Compound	Rescue from Aβ-induced toxicity [1]	EC50 (human FPRL2) [nM]
~1500	MAPRGFSCLLLLTGEIDLPVKRRA [[Gly14]-Humanin]		
	CC[C@H](C)[C@H](NC(=O)[C@H](CCC(=O)O)NC(=O)[C@H](CO)NC(=O)[C@@H](NC(=O)[C@H](CC(C)C)NC(=O)[C@H](CC(C)C)NC(=O)[C@H](CC(C)C)NC(=O)[C@H](CC(C)C)NC(=O)[C@H](CS)NC(=O)[C@H](CO)NC(=O)[C@H](Cc1ccccc1)NC(=O)CNC(=O)[C@H](CCCNC(=N)N)NC(=O)[C@@H]1CCCN1C(=O)[C@H](C)NC(=O)[C@@H](N)CCSC)[C@@H](C)O)C(=O)N[C@@H](CC(=O)O)C(=O)N[C@@H](CC(C)C)C(=O)N1CCC[C@H]1C(=O)N[C@H](C(=O)N[C@@H](CCCCN)C(=O)N[C@@H](CCCNC(=N)N)C(=O)N[C@@H](CCCNC(=N)N)C(=O)N[C@@H](C)C(=O)O)C(C)C [Humanin]	rescues human cerebrovascular smooth muscle cells from Aβ-induced toxicity	~239

From US7776558B2, “Human G protein-coupled receptor and modulators thereof for the treatment of cell death-related disorders” (Arena Pharmaceuticals, Inc., priority 2003, dated 2010)
